Assay results as given in patent US11993599B2, “Therapeutic compounds” (Genentech, Inc., priority 2021, dated 2024).

Assays:
BRM = BRM (Homo sapiens, UniProt P51531); assay: Immunofluorescence assay for BRM degradation in SW1573 cells; type: cell-based; set-up: treated overnight at 4° C. with either BRM primary antibody (Cell signaling Cat #11966) or BRG primary antibody; endogenous in cells; host or cells: SW1573; conditions: 20 hours incubation; for DC50: immunofluorescence mean nuclear signal, read-out: BRM IF Degradation IC50; for BRM IF Degradation Sinf (%): normalized to a known degrader control
BRM, sequence (P51531 whole entry): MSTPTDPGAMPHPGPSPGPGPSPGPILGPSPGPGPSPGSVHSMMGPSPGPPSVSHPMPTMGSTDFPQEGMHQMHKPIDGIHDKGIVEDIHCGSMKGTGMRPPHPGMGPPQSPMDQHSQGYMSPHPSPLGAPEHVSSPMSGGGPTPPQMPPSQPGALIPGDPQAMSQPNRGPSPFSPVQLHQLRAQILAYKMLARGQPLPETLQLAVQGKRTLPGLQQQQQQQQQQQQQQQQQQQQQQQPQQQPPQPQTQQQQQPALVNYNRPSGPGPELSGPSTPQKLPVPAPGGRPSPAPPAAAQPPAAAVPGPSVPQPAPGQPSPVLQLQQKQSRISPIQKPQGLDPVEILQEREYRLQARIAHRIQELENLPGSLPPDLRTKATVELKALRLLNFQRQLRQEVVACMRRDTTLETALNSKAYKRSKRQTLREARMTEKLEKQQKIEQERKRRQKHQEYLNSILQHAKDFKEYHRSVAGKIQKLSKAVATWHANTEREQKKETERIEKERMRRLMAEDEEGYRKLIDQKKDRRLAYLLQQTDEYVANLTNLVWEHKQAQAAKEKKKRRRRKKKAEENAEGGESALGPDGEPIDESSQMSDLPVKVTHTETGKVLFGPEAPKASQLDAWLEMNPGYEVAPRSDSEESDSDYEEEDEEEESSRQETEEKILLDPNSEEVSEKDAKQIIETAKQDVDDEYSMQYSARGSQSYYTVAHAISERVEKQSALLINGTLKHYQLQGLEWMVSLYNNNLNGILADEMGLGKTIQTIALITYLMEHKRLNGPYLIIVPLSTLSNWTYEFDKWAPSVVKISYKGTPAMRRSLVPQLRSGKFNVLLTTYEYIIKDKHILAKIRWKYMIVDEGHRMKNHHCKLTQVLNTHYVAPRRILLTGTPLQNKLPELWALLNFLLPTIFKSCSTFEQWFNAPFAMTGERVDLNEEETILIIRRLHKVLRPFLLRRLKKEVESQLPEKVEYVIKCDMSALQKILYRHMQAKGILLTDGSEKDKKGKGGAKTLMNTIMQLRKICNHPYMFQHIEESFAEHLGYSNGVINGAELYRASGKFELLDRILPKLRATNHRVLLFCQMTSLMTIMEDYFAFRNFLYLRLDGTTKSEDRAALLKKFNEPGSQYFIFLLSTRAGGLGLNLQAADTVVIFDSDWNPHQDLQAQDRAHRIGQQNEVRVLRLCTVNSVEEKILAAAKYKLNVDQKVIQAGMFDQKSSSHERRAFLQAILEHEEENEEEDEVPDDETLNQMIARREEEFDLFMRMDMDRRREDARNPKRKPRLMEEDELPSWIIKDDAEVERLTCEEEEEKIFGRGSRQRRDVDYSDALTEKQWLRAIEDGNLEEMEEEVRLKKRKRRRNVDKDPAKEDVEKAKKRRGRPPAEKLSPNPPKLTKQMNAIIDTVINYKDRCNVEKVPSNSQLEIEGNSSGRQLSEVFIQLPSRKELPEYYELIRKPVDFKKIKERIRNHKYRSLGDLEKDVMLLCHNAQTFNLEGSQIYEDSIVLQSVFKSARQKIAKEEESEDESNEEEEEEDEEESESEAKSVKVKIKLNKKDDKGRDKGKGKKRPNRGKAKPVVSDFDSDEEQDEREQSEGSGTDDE
Outline: (§1)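 SW1573 cells were treated with compound for 20 h, fixed, permeabilized and immunostained for BRM or BRG1 with a Hoechst nuclear counterstain. Mean nuclear signal intensity per cell was quantified by high-content imaging, normalized to a known degrader control, and dose-response curves were fit with a floating maximum to derive Dmax.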

BRG1 = molecular target: T1, BRG1 (Homo sapiens, UniProt P51532); assay: Immunofluorescence assay for BRG1 degradation in SW1573 cells; type: cell-based; conditions: 20 hours incubation; for DC50: immunofluorescence mean nuclear signal, read-out: BRG1 IF Degradation IC50; for Dmax: SW1573, 20 h, normalized to a known degrader control, read-out: BRG1 IF Degradation Sinf (%)
T1 construct: either BRM primary antibody (Cell signaling Cat #11966) or BRG primary antibody (Abcam, ab 110641); endogenous in cells; host or cells: SW1573
T1 sequence (P51532 whole entry): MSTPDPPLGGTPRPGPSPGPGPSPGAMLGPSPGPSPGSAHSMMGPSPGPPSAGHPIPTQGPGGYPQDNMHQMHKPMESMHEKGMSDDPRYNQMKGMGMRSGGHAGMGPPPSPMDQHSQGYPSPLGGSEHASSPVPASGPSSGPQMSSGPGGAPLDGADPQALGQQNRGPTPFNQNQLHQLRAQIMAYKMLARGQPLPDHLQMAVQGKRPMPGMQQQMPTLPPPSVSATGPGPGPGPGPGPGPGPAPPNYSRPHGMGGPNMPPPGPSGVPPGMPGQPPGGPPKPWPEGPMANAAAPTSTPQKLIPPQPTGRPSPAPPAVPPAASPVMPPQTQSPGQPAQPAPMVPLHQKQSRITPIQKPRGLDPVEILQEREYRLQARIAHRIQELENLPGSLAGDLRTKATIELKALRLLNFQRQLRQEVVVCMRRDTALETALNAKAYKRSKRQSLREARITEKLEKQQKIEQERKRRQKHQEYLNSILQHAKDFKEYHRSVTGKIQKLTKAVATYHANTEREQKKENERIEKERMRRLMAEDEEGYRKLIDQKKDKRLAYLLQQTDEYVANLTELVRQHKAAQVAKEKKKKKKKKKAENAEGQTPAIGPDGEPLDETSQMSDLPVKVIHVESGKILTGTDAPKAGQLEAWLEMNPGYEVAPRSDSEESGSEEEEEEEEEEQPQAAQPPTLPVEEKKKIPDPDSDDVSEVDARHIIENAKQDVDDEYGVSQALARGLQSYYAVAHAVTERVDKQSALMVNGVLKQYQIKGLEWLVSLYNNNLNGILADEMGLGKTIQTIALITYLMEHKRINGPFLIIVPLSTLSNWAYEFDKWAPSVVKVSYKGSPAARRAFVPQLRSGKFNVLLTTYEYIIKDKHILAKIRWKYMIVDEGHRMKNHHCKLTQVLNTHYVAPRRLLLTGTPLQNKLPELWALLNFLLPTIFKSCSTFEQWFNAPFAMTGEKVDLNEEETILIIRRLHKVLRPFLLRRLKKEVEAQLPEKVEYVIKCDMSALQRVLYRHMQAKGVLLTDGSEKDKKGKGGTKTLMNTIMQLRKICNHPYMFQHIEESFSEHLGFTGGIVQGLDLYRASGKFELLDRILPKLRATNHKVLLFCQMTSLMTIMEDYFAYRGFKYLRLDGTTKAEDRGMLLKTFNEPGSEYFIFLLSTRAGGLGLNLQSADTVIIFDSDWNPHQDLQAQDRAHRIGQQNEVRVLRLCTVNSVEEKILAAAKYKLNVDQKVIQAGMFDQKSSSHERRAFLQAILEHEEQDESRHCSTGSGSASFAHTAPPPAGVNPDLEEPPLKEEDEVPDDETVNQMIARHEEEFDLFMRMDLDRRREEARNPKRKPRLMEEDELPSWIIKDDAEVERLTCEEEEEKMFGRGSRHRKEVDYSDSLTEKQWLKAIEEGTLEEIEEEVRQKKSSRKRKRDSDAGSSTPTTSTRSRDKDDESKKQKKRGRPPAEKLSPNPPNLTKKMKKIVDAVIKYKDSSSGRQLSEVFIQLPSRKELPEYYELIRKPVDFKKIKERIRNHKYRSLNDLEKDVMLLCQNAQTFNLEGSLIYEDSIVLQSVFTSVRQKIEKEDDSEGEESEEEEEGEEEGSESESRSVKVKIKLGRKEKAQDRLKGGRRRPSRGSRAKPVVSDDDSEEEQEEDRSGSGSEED
Outline: as §1

Structure (SMILES) | DC50 (BRM) | BRM IF Degradation Sinf (%) (BRM) | DC50 (BRG1) | Dmax (BRG1)
N#CC1CCN(CC#Cc2cc(N3C4CCC3CN(c3cc(-c5ccccc5O)nnc3N)C4)ccn2)CC1 [Compound 139, 1-[3-[4-[3-[3-amino-6-(2-hydroxyphenyl)pyridazin-4-yl]-3,8-diazabicyclo[3.2.1]octan-8-yl]-2-pyridyl]prop-2-ynyl]piperidine-4-carbonitrile] | < 10 nM | E (E indicates −30%-−70%) | 10 to 100 nM | 0 to 30%
CC1(C)CN(CC#Cc2cc(N3C4CCC3CN(c3cc(-c5ccccc5O)nnc3N)C4)ccn2)C1 [Compound 135, 2-[6-amino-5-[8-[2-[3-(3,3-dimethylazetidin-1-yl)prop-1-ynyl]-4-pyridyl]-3,8-diazabicyclo[3.2.1]octan-3-yl]pyridazin-3-yl]phenol] | < 10 nM | E (E indicates −30%-−70%) | < 10 nM | 30 to 70%
Nc1nnc(-c2ccccc2O)cc1N1CC2CCC(C1)N2c1ccnc(C#CCN2CC3CCCC32)c1 (stereo not drawn) [Compound 162, 2-(5-(8-(2-(3-(6-azabicyclo[3.2.0]heptan-6-yl)prop-1-yn-1-yl)pyridin-4-yl)-3,8-diazabicyclo[3.2.1]octan-3-yl)-6-aminopyridazin-3-yl)phenol] | < 10 nM | F (F indicates −71%-−120%) | < 10 nM | 30 to 70%
Nc1nnc(-c2ccccc2O)cc1N1CC2CCC(C1)N2c1ccnc(C#CCN2CCn3ccnc3C2)c1 [Compound 53, 2-[6-amino-5-[8-[2-[3-(6,8-dihydro-5H-imidazo[1,2-a]pyrazin-7-yl)prop-1-ynyl]-4-pyridyl]-3,8-diazabicyclo[3.2.1]octan-3-yl]pyridazin-3-yl]phenol] | 10 to 100 nM | E (E indicates −30%-−70%) | 10 to 100 nM | 0 to 30%
Nc1nnc(-c2ccccc2O)cc1N1CC2CCC(C1)N2c1ccnc(C#CCN2CCCC(CO)CC2)c1 (stereo not drawn) [Compound 215, 2-[6-amino-5-[8-[2-[3-[4-(hydroxymethyl)azepan-1-yl]prop-1-ynyl]-4-pyridyl]-3,8-diazabicyclo[3.2.1]octan-3-yl]pyridazin-3-yl]phenol] | < 10 nM | F (F indicates −71%-−120%) | 10 to 100 nM | 71 to 120%
Nc1nnc(-c2ccccc2O)cc1N1CC2CCC(C1)N2c1ccnc(C#CCN2Cc3cn[nH]c3C2)c1 [Compound 149, 2-[6-amino-5-[8-[2-[3-(4,6-dihydro-1H-pyrrolo[3,4-c]pyrazol-5-yl)prop-1-ynyl]-4-pyridyl]-3,8-diazabicyclo[3.2.1]octan-3-yl]pyridazin-3-yl]phenol] | 10 to 100 nM | E (E indicates −30%-−70%) | 10 to 100 nM | 0 to 30%
Nc1nnc(-c2ccccc2O)cc1N1CC2CCC(C1)N2c1ccnc(C#CCN2CCCC(F)CC2)c1 (stereo not drawn) [Compound 193, 2-[6-amino-5-[8-[2-[3-(4-fluoroazepan-1-yl)prop-1-ynyl]-4-pyridyl]-3,8-diazabicyclo[3.2.1]octan-3-yl]pyridazin-3-yl]phenol] | < 10 nM | F (F indicates −71%-−120%) | < 10 nM | 71 to 120%
Nc1nnc(-c2ccccc2O)cc1N1CC2CCC(C1)N2c1ccnc(C#CCN2CC(C3CCOC3)C2)c1 (stereo not drawn) [Compound 157, 2-[6-amino-5-[8-[2-[3-(3-tetrahydrofuran-3-ylazetidin-1-yl)prop-1-ynyl]-4-pyridyl]-3,8-diazabicyclo[3.2.1]octan-3-yl]pyridazin-3-yl]phenol] | 10 to 100 nM | E (E indicates −30%-−70%) | 10 to 100 nM | 30 to 70%
Nc1nnc(-c2ccccc2O)cc1N1CC2CCC(C1)N2c1ccnc(C#CCN2CC3CCOCC3C2)c1 (stereo not drawn) [Compound 92, 2-[5-[8-[2-[3-(3,3a,4,6,7,7a-hexahydro-1H-pyrano[3,4-c]pyrrol-2-yl)prop-1-ynyl]-4-pyridyl]-3,8-diazabicyclo[3.2.1]octan-3-yl]-6-amino-pyridazin-3-yl]phenol] | < 10 nM | F (F indicates −71%-−120%) | < 10 nM | 30 to 70%
